Data reported in paper PMC11040934, “PI3Kγδ inhibition suppresses key disease features in a rat model of asthma” (Respiratory Research, 2024).
Where two headings read alike, the source gives them in different places.

Experiments:
[1] = test system: JAK/STAT and NF-κB pathways; test: Rat model of allergic asthma: lung pSTAT3, pSTAT5a,b and NF-κB p65, pathway specificity; format: in vivo, Brown Norway rat; details: i.t. 1 hr before OVA challenge; lung 2 hrs after challenge
Description: Male, adult, Brown Norway rats were obtained from Charles River Germany at a body weight range of 250-300 g. Animals were housed in temperature controlled individually ventilated cages in groups of 4 with food and water provided ad libitum. Animals underwent acclimatisation for at least 1 week prior to experimentation.
Initially a time course study was performed, followed by a characterisation study with compound & clinical comparator. […]
10 μg of protein from lung tissue extract were utilized in pAkt (T308); pSTAT3, pSTAT4 & STAT5a, b (Phospho-STAT Panel kit) MSD Assay plates (Meso Scale Delivery, USA) and run according to manufacturers’ instructions. Arbitrary electrochemiluminescence signals were read, the blank subtracted and values determined in each plate using a MSD S-Plex plate reader (Meso Scale Delivery, USA). […]
10 μg (5 μL) of nuclear tissue extract were utilized in NF-κB p65 TransAm Activation Assays (Active Motif, USA) and run according to manufacturer’s instructions. Optical density was determined utilizing a spectrophotometer, the blank was subtracted, and values determined (450 nm; Spectromax, UK).

rat PI3Kδ = biological target: T1, rat PI3Kδ (Rattus norvegicus, UniProt A0A8I5Y949); test: PI3K δ assay: anti-IgM-stimulated CD86 expression on rat splenic B cells (FACS); format: cell-based; details: mean ± SEM, n = 3
T1 sequence (A0A8I5Y949 1-1047): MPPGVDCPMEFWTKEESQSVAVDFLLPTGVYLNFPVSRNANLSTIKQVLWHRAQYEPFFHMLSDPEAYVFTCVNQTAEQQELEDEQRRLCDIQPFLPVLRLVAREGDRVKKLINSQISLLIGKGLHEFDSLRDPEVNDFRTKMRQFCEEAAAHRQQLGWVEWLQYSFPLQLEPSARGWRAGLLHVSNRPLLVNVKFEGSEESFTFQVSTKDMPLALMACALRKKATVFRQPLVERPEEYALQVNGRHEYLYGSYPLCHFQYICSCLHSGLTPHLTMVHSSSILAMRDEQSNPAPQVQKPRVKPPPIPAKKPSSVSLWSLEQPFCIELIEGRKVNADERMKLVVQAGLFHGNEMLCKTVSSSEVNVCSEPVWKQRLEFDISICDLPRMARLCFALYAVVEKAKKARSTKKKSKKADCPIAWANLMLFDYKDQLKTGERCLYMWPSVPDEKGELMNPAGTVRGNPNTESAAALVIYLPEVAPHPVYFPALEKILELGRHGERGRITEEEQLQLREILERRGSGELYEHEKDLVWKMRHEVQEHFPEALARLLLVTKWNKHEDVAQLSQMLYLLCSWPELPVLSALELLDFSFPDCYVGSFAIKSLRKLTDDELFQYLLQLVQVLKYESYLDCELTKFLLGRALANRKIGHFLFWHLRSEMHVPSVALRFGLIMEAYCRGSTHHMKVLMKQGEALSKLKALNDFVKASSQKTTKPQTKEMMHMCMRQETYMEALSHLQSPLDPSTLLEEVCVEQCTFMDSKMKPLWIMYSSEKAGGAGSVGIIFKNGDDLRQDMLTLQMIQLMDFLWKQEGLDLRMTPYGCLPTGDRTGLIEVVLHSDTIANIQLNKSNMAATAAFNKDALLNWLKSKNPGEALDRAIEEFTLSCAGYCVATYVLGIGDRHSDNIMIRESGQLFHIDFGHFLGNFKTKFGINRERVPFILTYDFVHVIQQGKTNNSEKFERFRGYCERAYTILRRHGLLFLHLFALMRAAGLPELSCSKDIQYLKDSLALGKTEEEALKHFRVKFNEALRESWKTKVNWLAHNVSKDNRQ
Description: (§1) PI3K δ assay: single cell suspension was obtained from the spleen of male Sprague Dawley rat; cells were cultured in RPMI containing heat-inactivated 10% FBS, pre-treated (1 hr., 37 °C, 5% CO2) with vehicle DMSO or PI3K inhibitors, followed by stimulation with AffiniPure F(ab’)2 Fragment Goat Anti-Rat IgM, μ chain specific, Jackson Immunoresearch (112–006-075) at 5 μg/mL (EC80 determined in house; 20–22 hrs). Then, cells were washed with FACS buffer (2% FBS, […]) and stained (15 mins, 4 °C) with Fc block (1:100, 550,273, BD bioscience), LIVE/DEAD Fixable Aqua Dead Cell Stain Kit (L34957, Invitrogen, 1:300), CD45R (B220)-PeCy7 (HIS24) (25–0460-82, eBioscience, 1:100), CD3-AF647 (IF4) (201,408, Biolegend, 1:100), CD86-FITC (24F) (200,305, Biolegend, 1:50). Cells were acquired on the Flow Cytometer (BD LSRFortessa™) and analysed using FlowJo 9.9 software (TreeStar). FACS gating strategy: lymphocytes (FSC-A vs SSC-A), doublets exclusion (FSC-W vs FSC-H), live cells (Aqua-530-), B cell identification CD3- B220 + % of positive B cells for CD86. IC50 values were determined in Graph Pad through a nonlinear fit on log transform data: log inhibitor vs response, variable slope, 4 parameters. Fraction unbound in in vitro assay is calculated using the following equation: fu^′=DF·fup/1+DF-1·fup where fu’ is the fraction unbound in assay media; fup is the experimentally determined fraction unbound in undiluted human plasma; DF is the dilution factor (fold difference between protein concentration in human plasma and assay media, using an albumin concentration of 600 μM (40 g/L) for undiluted plasma) Table 2.

[2] = Human plasma protein binding and unbound fraction in assay media; format: in vitro ADME
Description: as §1

[3] = Lung tissue and plasma levels after intratracheal dosing (LC-MS/MS); format: in vivo
Description: Initially a time course study was performed, followed by a characterisation study with compound & clinical comparator. For both studies, rats were sensitised on day 0, 14 and 21 by an intraperitoneal (i.p.) injection of 4 mL/kg (1 mL/rat) of ovalbumin (OVA;100 μg/rat) in Imject™ Alum (20 mg/rat aluminium hydroxide and 20 mg/rat magnesium hydroxide) or sham sensitised (Saline [Sal] in Imject™ Alum). On day 28 rats were challenged with 1% (w/v) aerosolised OVA in isotonic saline, or sham challenged with isotonic saline (30 mins).
For the time course study, animals were terminally anaesthetized, via overdose i.p. with sodium pentobarbitone (200 mg/kg), 1–24 hrs post antigen challenge. For the compound study, animals were terminally anaesthetised, via overdose i.p. with sodium pentobarbitone (200 mg/kg), 2 or 24 hrs post antigen challenge. […]
50 μL plasma was protein precipitated by addition of 180 μL acetonitrile containing 0.2% formic acid & 50 nM internal standard. […] Plasma concentrations of AZD8154 were determined by liquid chromatography with tandem mass spectrometric detection (LC-MS/MS).
Lung pieces were weighed and homogenised in a 1 mL ringer solution using bead-beating technology (Bertin Technologies, Montigny le Bretonneux, France). […] Lung concentrations of AZD8154 were determined by LC-MS/MS. […]

Compound: Cc1nc(Nc2cccc(N3CCCC3=O)n2)sc1-c1cc2c(c(S(C)(=O)=O)c1)C(=O)N([C@@H](C)C1CC1)C2 [AZD8154]
- JAK/STAT pathway (pSTAT3, pSTAT5a,b) in lung tissue [1]: minimal impact
- NF-κB pathway (NF-κB p65) in lung nuclear extract [1]: minimal impact
- IC50 (rat PI3Kδ; CD86 expression on B cells, read-out: rat δ total IC50): 10.5 ± 6.2 nM
- IC50 (rat PI3Kδ; corrected for protein binding in the assay, read-out: rat δ free IC50): 0.63 ± 0.37 nM
- fraction unbound ([2]; human plasma, fraction unbound, read-out: Human ppb (fu, %)): 0.0063
- fraction unbound ([2]; human, assay media (PI3K δ assay), fraction unbound in assay media (δ assay, RPMI 10% FBS), read-out: Fu’): 0.06
- Mean concentration in lung tissue and plasma versus dose ([3]; i.t. 0.02, 0.1, 0.3 mg/kg, 2 & 24 hrs post-challenge): increased with increasing dose
- level in lung tissue compared to plasma ([3]; i.t., up to 24 hrs post-dosing): significantly higher in the lung tissue
